US8492371B2, “Compounds as cannabinoid receptor ligands” (priority 2009, dated 2013)
Where two headings read alike, the source gives them in different places.

Legend:
[1] = target: T1, human CB2 receptors (Homo sapiens, UniProt P34972); assay: Human CB2 radioligand binding assay ([3H]CP-55,940 competition)
T1 construct: expressed in transfected cells; host or cells: HEK293
Outline: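 Membranes from HEK293 cells stably expressing human CB2 (5 μg/well) incubated 90 min at 30 °C with 0.5 nM [3H]CP-55,940 and five concentrations of displacer (0.01 nM–10 μM) in pH 7.4 Tris/EDTA/MgCl2 buffer with fatty acid free BSA. Bound radioactivity counted after filtration; nonspecific binding defined with 10 μM unlabeled CP-55,940.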

[2] = target: T2, rat CB2 receptors (Rattus norvegicus, UniProt Q9QZN9); assay: Rat CB2 radioligand binding assay ([3H]CP-55,940 competition)
T2 construct: expressed in transfected cells; host or cells: HEK293
T2 sequence (Q9QZN9 1-360): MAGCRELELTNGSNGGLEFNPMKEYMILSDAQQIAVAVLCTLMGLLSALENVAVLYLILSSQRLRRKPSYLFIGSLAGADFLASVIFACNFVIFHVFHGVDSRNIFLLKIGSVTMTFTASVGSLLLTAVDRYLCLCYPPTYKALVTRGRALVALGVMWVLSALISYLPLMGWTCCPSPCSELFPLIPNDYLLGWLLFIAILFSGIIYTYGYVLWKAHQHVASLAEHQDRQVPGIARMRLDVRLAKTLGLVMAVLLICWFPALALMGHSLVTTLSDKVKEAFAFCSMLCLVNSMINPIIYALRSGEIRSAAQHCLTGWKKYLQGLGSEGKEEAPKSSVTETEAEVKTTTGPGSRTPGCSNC
Outline: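 Membranes from HEK293 cells stably expressing rat CB2 (20 μg/well) incubated 45 min at 30 °C with 0.5 nM [3H]CP-55,940 and five competitor concentrations in Tris/EDTA/MgCl2 buffer with 0.5 mg/mL BSA, pH 7.4. Filtration and scintillation counting; nonspecific binding with 10 μM unlabeled CP-55,940.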

T1 sequence (P34972 whole entry): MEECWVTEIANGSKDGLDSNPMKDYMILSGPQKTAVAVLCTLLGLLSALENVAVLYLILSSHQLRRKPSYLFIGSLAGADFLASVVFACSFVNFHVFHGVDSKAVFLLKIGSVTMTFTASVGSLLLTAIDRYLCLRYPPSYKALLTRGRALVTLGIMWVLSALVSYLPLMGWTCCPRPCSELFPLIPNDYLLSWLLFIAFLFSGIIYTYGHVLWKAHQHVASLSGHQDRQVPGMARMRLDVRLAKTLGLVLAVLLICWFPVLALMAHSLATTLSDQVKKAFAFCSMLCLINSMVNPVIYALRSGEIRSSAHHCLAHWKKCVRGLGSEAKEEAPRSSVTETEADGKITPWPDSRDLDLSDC

| Structure (SMILES) | Ki [1] [nM] | Ki [2] [nM] | Ki ([1]; HEK293 membranes, 0.5 nM [3H]CP-55,940, read-out: human CB2 Ki) [nM] |
| --- | --- | --- | --- |
| C/C=C/c1ccc(C(F)(F)F)cc1C(=O)/N=c1\cc(C(C)(C)C)n(C)n1C[C@H]1CCCO1 [Example 99, N-{(3E)-5-tert-butyl-1-methyl-2-[(2R)-tetrahydrofuran-2-ylmethyl]-1,2-dihydro-3H-pyrazol-3-ylidene}-2-[(1E)-prop-1-enyl]-5-(trifluoromethyl)benazmide] | 12 | 3.5 | – |
| Cn1c(C(C)(C)C)c/c(=N\C(=O)c2cc(C(F)(F)F)ccc2/C=C/C(C)(C)O)n1C[C@H]1CCCO1 [Example 100, N-{(3E)-5-tert-butyl-1-methyl-2-[(2R)-tetrahydrofuran-2-ylmethyl]-1,2-dihydro-3H-pyrazol-3-ylidene}-2-[(1E)-3-hydroxy-3-methylbut-1-enyl]-5-(trifluoromethyl)benzamide] | 3.2 | 1.1 | – |
| Cn1c(C(C)(C)C)c/c(=N\C(=O)c2cc(C(F)(F)F)ccc2CCC(C)(C)O)n1C[C@H]1CCCO1 [Example 101, N-{(3E)-5-tert-butyl-1-methyl-2-[(2R)-tetrahydrofuran-2-ylmethyl]-1,2-dihydro-3H-pyrazol-3-ylidene}-2-(3-hydroxy-3-methylbutyl)-5-(trifluoromethyl)benazmide] | 49 | 34 | – |
| Cn1c(C2(C)CC2)c/c(=N\C(=O)c2cc(C(F)(F)F)ccc2OCC2(O)CCC2)n1C[C@H]1CCCO1 [Example 102, 2-[(1-hydroxycyclobutyl)methoxy]-N-{(3E)-1-methyl-5-(1-methylcyclopropyl)-2-[(2 R)-tetrahydrofuran-2-ylmethyl]-1,2-dihydro-3H-pyrazol-3-ylidene}-5-(trifluoromethyl)benzamide] | 21 | 11 | – |
| Cn1c(C(C)(C)C)c/c(=N\C(=O)c2cc(O)cc(C(F)(F)F)c2)n1C[C@H]1CCCO1 [Example 103, N-{(3E)-5-tert-butyl-1-methyl-2-[(2R)-tetrahydrofuran-2-ylmethyl]-1,2-dihydro-3H-pyrazol-3-ylidene}-3-hydroxy-5-(trifluoromethyl)benzamide] | 16 | 4.4 | – |
| Cn1c(C(C)(C)C)c/c(=N\C(=O)c2cc(Br)cc(C(F)(F)F)c2)n1C[C@H]1CCCO1 [Example 104, 3-bromo-N-{(3E)-5-tert-butyl-1-methyl-2-[(2R)-tetrahydrofuran-2-ylmethyl]-1,2-dihydro-3H-pyrazol-3-ylidene}-5-(trifluoromethyl)benzamide] | 46 | 9.3 | – |
| Cn1c(C(C)(C)C)c/c(=N\C(=O)c2cc(OCCF)cc(C(F)(F)F)c2)n1C[C@H]1CCCO1 [Example 105, N-{(3E)-5-tert-butyl-1-methyl-2-[(2R)-tetrahydrofuran-2-ylmethyl]-1,2-dihydro-3H-pyrazol-3-ylidene}-3-(2-fluoroethoxy)-5-(trifluoromethyl)benazmide] | 69 | 10 | – |
| Cn1c(C(C)(C)C)c/c(=N\C(=O)c2cc([N+](=O)[O-])cc(C(F)(F)F)c2)n1C[C@H]1CCCO1 [Example 106, N-{(3E)-5-tert-butyl-1-methyl-2-[(2R)-tetrahydrofuran-2-ylmethyl]-1,2-dihydro-3H-pyrazol-3-ylidene}-3-nitro-5-(trifluoromethyl)benzamide] | – | 63 | 168 |
| Cn1c(C(C)(C)C)c/c(=N\C(=O)c2cc(N)cc(C(F)(F)F)c2)n1C[C@H]1CCCO1 [Example 107, 3-amino-N-{(3E)-5-tert-butyl-1-methyl-2-[(2R)-tetrahydrofuran-2-ylmethyl]-1,2-dihydro-3H-pyrazol-3-ylidene}-5-(trifluoromethyl)benzamide] | 11 | 4.8 | – |
| CN(C)CCOc1ccc(C(F)(F)F)cc1C(=O)/N=c1\oc(C(C)(C)C)cn1C[C@H]1CCCO1 [Example 108, N-[(2Z)-5-tert-butyl-3-[(2R)-tetrahydrofuran-2-ylmethyl]-1,3-oxazol-2(3 H)-ylidene]-2-[2-(dimethylamino)ethoxy]-5-(trifluoromethyl)benzamide] | 148 | 55 | – |
| Cn1c(C(C)(C)C)c/c(=N\C(=O)c2cc(C(F)(F)F)ccc2/C=N\OC(C)(C)C)n1C[C@H]1CCCO1 [Example 109, 2-[(Z)-(tert-butoxyimino)methyl]-N-{(3E)-5-tert-butyl-1-methyl-2-[(2R)-tetrahydrofuran-2-ylmethyl]-1,2-dihydro-3H-pyrazol-3-ylidene}-5-(trifluoromethyl)benzamide] | 23 | 15 | – |
| COCc1ccc(C(F)(F)F)cc1C(=O)/N=c1\cc(C(C)(C)C)n(C)n1C[C@H]1CCCO1 [Example 110, N-{(3E)-5-tert-butyl-1-methyl-2-[(2R)-tetrahydrofuran-2-ylmethyl]-1,2-dihydro-3H-pyrazol-3-ylidene}-2-(methoxymethyl)-5-(trifluoromethyl)benzamide] | 12 | 3 | – |
| Cn1c(C(C)(C)C)c/c(=N\C(=O)c2cc(C(F)(F)F)ccc2CC(=O)OC(C)(C)C)n1C[C@H]1CCCO1 [Example 111, tert-butyl [2-[({(3E)-5-tert-butyl-1-methyl-2-[(2R)-tetrahydrofuran-2-ylmethyl]-1,2-dihydro-3H-pyrazol-3-ylidene}amino)carbonyl]-4-(trifluoromethyl)phenyl]acetate] | 14 | 12 | – |
| Cn1c(C(C)(C)C)c/c(=N\C(=O)c2cc(C(F)(F)F)ccc2N)n1C[C@H]1CCCO1 [Example 112, 2-amino-N-{(3E)-5-tert-butyl-1-methyl-2-[(2R)-tetrahydrofuran-2-ylmethyl]-1,2-dihydro-3H-pyrazol-3-ylidene}-5-(trifluoromethyl)benzamide] | 3.3 | 2.4 | – |
| Cn1c(C(C)(C)C)c/c(=N\C(=O)c2cc(C(F)(F)F)ccc2NS(C)(=O)=O)n1C[C@H]1CCCO1 [Example 113, N-{(3E)-5-tert-butyl-1-methyl-2-[(2R)-tetrahydrofuran-2-ylmethyl]-1,2-dihydro-3H-pyrazol-3-ylidene}-2-[(methylsulfonyl)amino]-5-(trifluoromethyl)benzamide] | 110 | 40 | – |
| Cn1c(C(C)(C)C)c/c(=N\C(=O)c2cc(C#N)ccc2F)n1C[C@H]1CCCO1 [Example 114, N-{(3E)-5-tert-butyl-1-methyl-2-[(2R)-tetrahydrofuran-2-ylmethyl]-1,2-dihydro-3H-pyrazol-3-ylidene}-5-cyano-2-fluorobenzamide] | 41 | 20 | – |
| COC(=O)c1cccc(C(=O)/N=c2\cc(C(C)(C)C)n(C)n2C[C@H]2CCCO2)c1 [Example 115] | 25 | 5.4 | – |
| Cn1c(C(C)(C)C)c/c(=N\C(=O)c2cc(Cl)ccc2F)n1C[C@H]1CCCO1 [Example 116] | 26 | 11 | – |
| COC(=O)C12CC3CC(CC(C(=O)/N=c4\cc(C(C)(C)C)n(C)n4C[C@H]4CCCO4)(C3)C1)C2 [Example 118] | 42 | 14 | – |
| Cn1c(C(C)(C)C)c/c(=N\C(=O)c2cc(C(F)(F)F)ccc2OCC2CC(=NO)C2)n1C[C@H]1CCCO1 (stereo partly drawn) [Example 119, N-{(3E)-5-tert-butyl-1-methyl-2-[(2R)-tetrahydrofuran-2-ylmethyl]-1,2-dihydro-3H-pyrazol-3-ylidene}-2-{[3-(hydroxyimino)cyclobutyl]methoxy}-5-(trifluoromethyl)benzamide] | 70 | 25 | – |
